Reference: patent US9133187B2, “Serine/threonine kinase inhibitors” (ARRAY BIOPHARMA INC., priority 2011, dated 2015)
Counter-ions that a name gives are not always drawn.

Legend:
[1] = test system: PMA-stimulated P90RSK(Ser380) phosphorylation in HepG2 cells; test: Cellular P90RSK(Ser380) Phosphorylation Assay; type: cell-based; settings: Homo sapiens, 1.5 h compound incubation, PMA stimulation, pP90RSK(Ser380) normalized to GAPDH, read-out: Cell Assay IC50
Experimental: Inhibition of PMA-stimulated P90RSK(Ser380) phosphorylation was determined by the following in vitro cellular mechanistic assay, which comprises incubating cells with a compound for 1.5 hours and quantifying fluorescent pP90RSK(Ser380) signal on fixed cells and normalizing to GAPDH signal.
Materials and Methods: HepG2 cells were obtained from ATCC and grown in DMEM supplemented with 10% fetal bovine serum. Cells were plated in 96-well plates at 35,000 cells/well and allowed to attach overnight at 37° C./5% CO2. Diluted compounds were then added at a final concentration of 0.5% DMSO. After 1.5 hour compound incubation, cells were stimulated with the addition of PMA (phorbol 12-myristate 13-acetate) at a final concentration of 100 ng/mL; the PMA stimulation was a 30-minute incubation at 37° C./5% CO2. After the 30-minute PMA stimulation, cells were washed with PBS and fixed in 3.7% formaldehyde in PBS at room temperature for 15-20 minutes. This was followed by another wash in PBS and then permeabilization in 100% MeOH at room temperature for 10-15 minutes. Following the permeabilization incubation, cells were washed in PBS/0.05% Tween-20, followed by a block in Odyssey blocking buffer (LI-COR Biosciences) for at least 1 hour. Antibodies to phosphorylated P90RSK(Ser380) (Cell Signaling #9335, rabbit monoclonal) and GAPDH (Fitzgerald 10R-G109a, mouse monoclonal) were added to the cells and incubated overnight at 4° C. pP90RSK(Ser380) antibody was used at a 1:250 dilution; GAPDH was used at a 1:10,000 dilution. After washing with PBS/0.05% Tween-20, the cells were incubated with fluorescently-labeled secondary antibodies (Anti-rabbit-Alexa Flour680, Invitrogen Cat#A21109; Anti-mouse-IRDye800CW, Rockland Inc. Cat#610-131-121) for 1 hour. Both secondary antibodies were used at a 1:1000 dilution. Cells were then washed and analyzed for fluorescence at both wavelengths using the Odyssey Infrared Imaging System (LI-COR Biosciences). Phosphorylated P90RSK(Ser380) signal was normalized to GAPDH signal. Representative date is in TABLE III (infra).

[2] = target: human ERK-2 (Mitogen Activated Kinase 1) (Homo sapiens (Human), UniProt P28482); test: ERK-2 Enzymatic Assay; type: biochemical; settings: 5 nM ERK-2, 25 μM ATP, Omnia peptide S/T17; read-out: ERK Inhibition IC50
Experimental: Compounds were tested in an enzymatic assay using human ERK-2 (Mitogen Activated Kinase 1), recombinantly expressed as an n-terminal 6-His fusion protein in E. coli and corresponding to aa 8-360. The substrate used was the fluorescent Omnia peptide S/T17 (Invitrogen of Carlsbad, Calif.; Cat. KNZ1171C). Test compounds were diluted in DMSO in 3-fold serial dilutions at 100× final concentrations. […] The assay was run at ambient temperature in a white 384-well polypropylene plate (Nunc, Inc of Naperville, Ill.; Cat. 267462) collecting data every 50 seconds for approximately 30 minutes on an Envision plate reader (PerkinElmer, Inc. of Waltham, Mass.); Excitation 340 nm/Emission 495 nm. The data collected from each well was fit to a straight line and the resulting rates were used to calculate percent of control. Percent of control was plotted against compound concentration and IC50 values were determined using a four-parameter fit.

human ERK-2 (Mitogen Activated Kinase 1), sequence (P28482 8-360): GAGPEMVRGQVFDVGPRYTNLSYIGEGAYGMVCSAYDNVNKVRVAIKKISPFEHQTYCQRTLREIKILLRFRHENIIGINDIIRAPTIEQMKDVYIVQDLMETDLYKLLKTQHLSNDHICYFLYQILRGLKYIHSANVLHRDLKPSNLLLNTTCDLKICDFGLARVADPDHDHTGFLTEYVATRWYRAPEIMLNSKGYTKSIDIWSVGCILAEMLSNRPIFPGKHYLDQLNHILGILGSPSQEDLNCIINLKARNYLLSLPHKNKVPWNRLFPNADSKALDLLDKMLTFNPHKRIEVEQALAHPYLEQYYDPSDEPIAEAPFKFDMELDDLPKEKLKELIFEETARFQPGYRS

Row | Structure (SMILES) | IC50 [2] [nM] | IC50 [1] [nM]
1 | COCC(=O)OC[C@@H](NC(=O)N1CCc2cnc(NC3CCOCC3)nc2C1)c1ccc(F)c(Cl)c1 [Compound I-56, (S)-2-(3-chloro-4-fluorophenyl)-2-(2-(tetrahydro-2H-pyran-4-ylamino)-5,6,7,8-tetrahydropyrido[3,4-d]pyrimidine-7-carboxamido)ethyl 2-methoxyacetate] | 5.3 | 66.2
2 | COC[C@@H](NC(=O)N1CCc2cnc(NCCO)nc2C1)c1ccc(Cl)c(Cl)c1 [Compound I-73] | 9.8 | 241
3 | C[C@@H](NC(=O)N1CCc2cnc(NC(CO)CO)nc2C1)c1ccc(Cl)c(Cl)c1 [Compound I-75, (R)—N-(1-(3,4-dichlorophenyl)ethyl)-2-(1,3-dihydroxypropan-2-ylamino)-5,6-dihydropyrido[3,4-d]pyrimidine-7(8H)-carboxamide] | 5.6 | 314
4 | C[C@@H](NC(=O)N1CCc2cnc(NC3CCN(C)CC3)nc2C1)c1ccc(Cl)c(Cl)c1 [Compound I-83, (R)—N-(1-(3,4-dichlorophenyl)ethyl)-2-(1-methylpiperidin-4-ylamino)-5,6-dihydropyrido[3,4-d]pyrimidine-7(8H)-carboxamide] | 113 | 2500
5 | CC1(C)CC[C@@H]([C@@H](NC(=O)N2CCc3cnc(NC4CCOCC4)nc3C2)c2ccc(C(F)(F)F)cc2F)N1 [Compound I-86, N—((S)—((S)-5,5-dimethylpyrrolidin-2-yl)(2-fluoro-4-(trifluoromethyl)phenyl)methyl)-2-(tetrahydro-2H-pyran-4-ylamino)-5,6-dihydropyrido[3,4-d]pyrimidine-7(8H)-carboxamide] | 148 | 3600
6 | CC(=O)N1CCC[C@H]1[C@@H](NC(=O)N1CCc2cnc(NC(C)C)nc2C1)c1ccc(Cl)c(F)c1 [Compound I-87, N—((S)—((S)-1-acetylpyrrolidin-2-yl)(4-chloro-3-fluorophenyl)methyl)-2-(isopropylamino)-5,6-dihydropyrido[3,4-d]pyrimidine-7(8H)-carboxamide] | 195 | 5100
7 | C[C@@H](CO)Nc1ncc2c(n1)CN(C(=O)NCc1cnc(C(F)(F)F)nc1)CC2 [Compound I-109, 2-((S)-2-Hydroxy-1-methyl-ethylamino)-5,8-dihydro-6H-pyrido[3,4-d]pyrimidine-7-carboxylic acid (2-trifluoromethyl-pyrimidin-5-ylmethyl)-amide] | 92.7 | 3300
8 | O=C(N1CCc2cnc(NC3CCOCC3)nc2C1)N1CCC[C@H]1c1ccccc1 [Compound I-130, (S)-(2-phenylpyrrolidin-1-yl)(2-(tetrahydro-2H-pyran-4-ylamino)-5,6-dihydropyrido[3,4-d]pyrimidin-7(8H)-yl)methanone] | 123 | 10000
9 | O=C(N1CCc2cnc(NC3CCOCC3)nc2C1)N1CCCC1c1ccc(F)cc1 (centres unmarked) [Compound I-134, (2-(4-fluorophenyl)pyrrolidin-1-yl)(2-(tetrahydro-2H-pyran-4-ylamino)-5,6-dihydropyrido[3,4-d]pyrimidin-7(8H)-yl)methanone] | 20.4 | 1200
10 | Cc1cccc(CCNc2ncc3c(n2)CN(C(=O)N[C@H](CO)c2ccc(F)c(Cl)c2)CC3)n1 [II-10, 2-[2-(6-Methyl-pyridin-2-yl)-ethylamino]-5,8-dihydro-6H-pyrido[3,4-d]pyrimidine-7-carboxylic acid [(S)-1-(3-chloro-4-fluoro-phenyl)-2-hydroxy-ethyl]-amide] | 61 | 20800

Stronger by IC50 [2], values ahead:

Row | IC50 [2] [nM] | Structure (SMILES) | IC50 [1] [nM]
11 | 0.6 | N#CC[C@@H](NC(=O)N1CCc2cnc(NC3CCOCC3)nc2C1)c1ccc(F)c(Cl)c1 [Compound I-59, (R)—N-(1-(3-chloro-4-fluorophenyl)-2-cyanoethyl)-2-(tetrahydro-2H-pyran-4-ylamino)-5,6-dihydropyrido[3,4-d]pyrimidine-7(8H)-carboxamide] | 85.5
12 | 3.3 | CC(CF)Nc1ncc2c(n1)CN(C(=O)N[C@H](CO)c1ccc(Cl)c(Cl)c1)CC2 (stereo partly drawn) [Compound I-60, N—((S)-1-(3,4-dichlorophenyl)-2-hydroxyethyl)-2-(1-fluoropropan-2-ylamino)-5,6-dihydropyrido[3,4-d]pyrimidine-7(8H)-carboxamide] | 100
13 | 2.9 | CC(C)Nc1ncc2c(n1)CN(C(=O)N[C@@H](c1ccc(Cl)c(Cl)c1)[C@H]1CCCN1C)CC2 [Compound I-61, N—((S)-(3,4-dichlorophenyl)((R)-1-methylpyrrolidin-2-yl)methyl)-2-(isopropylamino)-5,6-dihydropyrido[3,4-d]pyrimidine-7(8H)-carboxamide] | 93
14 | 2.4 | CC(C)Nc1ncc2c(n1)CN(C(=O)N[C@@H](c1ccc(Cl)c(Cl)c1)[C@H](O)CO)CC2 [Compound I-62, N-((1S,2S)-1-(3,4-dichlorophenyl)-2,3-dihydroxypropyl)-2-(isopropylamino)-5,6-dihydropyrido[3,4-d]pyrimidine-7(8H)-carboxamide] | 109
15 | 4.1 | CNC[C@@H](NC(=O)N1CCc2cnc(NC(C)C)nc2C1)c1ccc(C(F)(F)F)c(F)c1 [Compound I-66, (S)—N-(1-(3-fluoro-4-(trifluoromethyl)phenyl)-2-(methylamino)ethyl)-2-(isopropylamino)-5,6-dihydropyrido[3,4-d]pyrimidine-7(8H)-carboxamide hydrochloride] | 132
16 | 2.3 | CNC[C@@H](NC(=O)N1CCc2cnc(Nc3ccc(F)cc3)nc2C1)c1ccc(C(F)(F)F)c(F)c1 [Compound I-68, (S)—N-(1-(3-fluoro-4-(trifluoromethyl)phenyl)-2-(methylamino)ethyl)-2-(4-fluorophenylamino)-5,6-dihydropyrido[3,4-d]pyrimidine-7(8H)-carboxamide hydrochloride] | 146
17 | 2.1 | C[C@@H](CO)Nc1ncc2c(n1)CN(C(=O)NCc1ccc(Cl)c(Cl)c1)CC2 [Compound I-90, (S)—N-(3,4-dichlorobenzyl)-2-(1-hydroxypropan-2-ylamino)-5,6-dihydropyrido[3,4-d]pyrimidine-7(8H)-carboxamide] | 103
18 | 3.8 | CC(C)Nc1ncc2c(n1)CN(C(=O)NC1(c3ccc(Cl)c(Cl)c3)CCNCC1)CC2 [Compound I-93, N-(4-(3,4-dichlorophenyl)piperidin-4-yl)-2-(isopropylamino)-5,6-dihydropyrido[3,4-d]pyrimidine-7(8H)-carboxamide] | 6200
19 | 2.6 | CS(=O)(=O)CC[C@@H](NC(=O)N1CCc2cnc(NC3CCOCC3)nc2C1)c1ccc(Cl)c(Cl)c1 [Compound I-105, (R)—N-(1-(3,4-dichlorophenyl)-3-(methylsulfonyl)propyl)-2-(tetrahydro-2H-pyran-4-ylamino)-5,6-dihydropyrido[3,4-d]pyrimidine-7(8H)-carboxamide] | 101
20 | 2.7 | CC(NC(=O)N1CCc2cnc(NC3CCOCC3)nc2C1)c1ccc2cc[nH]c2c1 (centres unmarked) [Compound I-107, N-(1-(1H-indol-6-yl)ethyl)-2-(tetrahydro-2H-pyran-4-ylamino)-5,6-dihydropyrido[3,4-d]pyrimidine-7(8H)-carboxamide] | 30
21 | 1.8 | CC(C)Nc1ncc2c(n1)CN(C(=O)N[C@H](CCN)c1ccc(C(F)(F)F)cc1)CC2 [Compound I-119, (R)—N-(3-amino-1-(4-(trifluoromethyl)phenyl)propyl)-2-(isopropylamino)-5,6-dihydropyrido[3,4-d]pyrimidine-7(8H)-carboxamide] | 694
22 | 1.9 | CC(C)Nc1ncc2c(n1)CN(C(=O)N[C@H](CN)c1ccc(F)c(Cl)c1)CC2 [II-7, 2-Isopropylamino-5,8-dihydro-6H-pyrido[3,4-d]pyrimidine-7-carboxylic acid [(S)-2-amino-1-(3-chloro-4-fluoro-phenyl)-ethyl]-amide] | 50000
